Assay: The drug is tested on Bifidobacterium breve strain: DSM20213 for biotransformation. The drug concentrations were measured before and after a 12-h incubation by liquid-chromatography-coupled mass spectrometry (LC–MS)
Details: 2 µM

SMILES | Bacterial Biotransformation
CC[C@@H](CO)NC(=O)[C@@H]1C=C2c3cccc4c3c(cn4C)C[C@H]2N(C)C1.O=C(O)/C=C\C(=O)O [METHYSERGIDE MALEATE] | Compound metabolized
COc1ccc2[nH]c([S+]([O-])Cc3ncc(C)c(OC)c3C)nc2n1 (stereo not given) [TENATOPRAZOLE] | Compound metabolized

Assay: The drug is tested on Collinsella intestinalis strain: DSM13280 for biotransformation. The drug concentrations were measured before and after a 12-h incubation by liquid-chromatography-coupled mass spectrometry (LC–MS)
Details: 2 µM

SMILES | Bacterial Biotransformation
CC[C@@H](CO)NC(=O)[C@@H]1C=C2c3cccc4c3c(cn4C)C[C@H]2N(C)C1.O=C(O)/C=C\C(=O)O [METHYSERGIDE MALEATE] | Compound NOT metabolized
COc1ccc2[nH]c([S+]([O-])Cc3ncc(C)c(OC)c3C)nc2n1 (stereo not given) [TENATOPRAZOLE] | Compound metabolized

Assay: The drug is tested on Bacteroides cellulosilyticus strain: DSM14838 for biotransformation. The drug concentrations were measured before and after a 12-h incubation by liquid-chromatography-coupled mass spectrometry (LC–MS)
Details: 2 µM

SMILES | Bacterial Biotransformation
CC[C@@H](CO)NC(=O)[C@@H]1C=C2c3cccc4c3c(cn4C)C[C@H]2N(C)C1.O=C(O)/C=C\C(=O)O [METHYSERGIDE MALEATE] | Compound metabolized
COc1ccc2[nH]c([S+]([O-])Cc3ncc(C)c(OC)c3C)nc2n1 (stereo not given) [TENATOPRAZOLE] | Compound metabolized

Assay: The drug is tested on Bacteroides fragilis strain: HMW610 for biotransformation. The drug concentrations were measured before and after a 12-h incubation by liquid-chromatography-coupled mass spectrometry (LC–MS)
Details: 2 µM

SMILES | Bacterial Biotransformation
CC[C@@H](CO)NC(=O)[C@@H]1C=C2c3cccc4c3c(cn4C)C[C@H]2N(C)C1.O=C(O)/C=C\C(=O)O [METHYSERGIDE MALEATE] | Compound NOT metabolized
COc1ccc2[nH]c([S+]([O-])Cc3ncc(C)c(OC)c3C)nc2n1 (stereo not given) [TENATOPRAZOLE] | Compound metabolized

Assay: The drug is tested on Bacteroides vulgatus strain: ATCC8482 for biotransformation. The drug concentrations were measured before and after a 12-h incubation by liquid-chromatography-coupled mass spectrometry (LC–MS)
Details: phocaeicola vulgatus, 2 µM

SMILES | Bacterial Biotransformation
CC[C@@H](CO)NC(=O)[C@@H]1C=C2c3cccc4c3c(cn4C)C[C@H]2N(C)C1.O=C(O)/C=C\C(=O)O [METHYSERGIDE MALEATE] | Compound metabolized
COc1ccc2[nH]c([S+]([O-])Cc3ncc(C)c(OC)c3C)nc2n1 (stereo not given) [TENATOPRAZOLE] | Compound metabolized

Assay: The drug is tested on Bacteroides sp. WH2 strain: WH2 for biotransformation. The drug concentrations were measured before and after a 12-h incubation by liquid-chromatography-coupled mass spectrometry (LC–MS)
Details: bacteroides sp. wh2, 12 h, 2 µM

SMILES | Bacterial Biotransformation
CC[C@@H](CO)NC(=O)[C@@H]1C=C2c3cccc4c3c(cn4C)C[C@H]2N(C)C1.O=C(O)/C=C\C(=O)O [METHYSERGIDE MALEATE] | Compound metabolized
COc1ccc2[nH]c([S+]([O-])Cc3ncc(C)c(OC)c3C)nc2n1 (stereo not given) [TENATOPRAZOLE] | Compound metabolized

Assay: The drug is tested on Blautia hansenii strain: DSM20583 for biotransformation. The drug concentrations were measured before and after a 12-h incubation by liquid-chromatography-coupled mass spectrometry (LC–MS)
Details: 2 µM

SMILES | Bacterial Biotransformation
CC[C@@H](CO)NC(=O)[C@@H]1C=C2c3cccc4c3c(cn4C)C[C@H]2N(C)C1.O=C(O)/C=C\C(=O)O [METHYSERGIDE MALEATE] | Compound metabolized
COc1ccc2[nH]c([S+]([O-])Cc3ncc(C)c(OC)c3C)nc2n1 (stereo not given) [TENATOPRAZOLE] | Compound metabolized

Assay: The drug is tested on Blautia luti strain: DSM14534 for biotransformation. The drug concentrations were measured before and after a 12-h incubation by liquid-chromatography-coupled mass spectrometry (LC–MS)
Assay type: ADME
Design: dose 2 uM, timepoint 0 vs 12 hours
Details: 2 µM

SMILES | Bacterial Biotransformation
CC[C@@H](CO)NC(=O)[C@@H]1C=C2c3cccc4c3c(cn4C)C[C@H]2N(C)C1.O=C(O)/C=C\C(=O)O [METHYSERGIDE MALEATE] | Compound metabolized
COc1ccc2[nH]c([S+]([O-])Cc3ncc(C)c(OC)c3C)nc2n1 (stereo not given) [TENATOPRAZOLE] | Compound metabolized

Assay: The drug is tested on Clostridium asparagiforme strain: DSM15981 for biotransformation. The drug concentrations were measured before and after a 12-h incubation by liquid-chromatography-coupled mass spectrometry (LC–MS)
Assay type: ADME
Design: dose 2 uM, timepoint 0 vs 12 hours
Details: enterocloster asparagiformis, 2 µM

SMILES | Bacterial Biotransformation
CC[C@@H](CO)NC(=O)[C@@H]1C=C2c3cccc4c3c(cn4C)C[C@H]2N(C)C1.O=C(O)/C=C\C(=O)O [METHYSERGIDE MALEATE] | Compound metabolized
COc1ccc2[nH]c([S+]([O-])Cc3ncc(C)c(OC)c3C)nc2n1 (stereo not given) [TENATOPRAZOLE] | Compound metabolized

Assay: The drug is tested on Dorea formicigenerans strain: ATCC27755 for biotransformation. The drug concentrations were measured before and after a 12-h incubation by liquid-chromatography-coupled mass spectrometry (LC–MS)
Details: 2 µM

SMILES | Bacterial Biotransformation
CC[C@@H](CO)NC(=O)[C@@H]1C=C2c3cccc4c3c(cn4C)C[C@H]2N(C)C1.O=C(O)/C=C\C(=O)O [METHYSERGIDE MALEATE] | Compound metabolized
COc1ccc2[nH]c([S+]([O-])Cc3ncc(C)c(OC)c3C)nc2n1 (stereo not given) [TENATOPRAZOLE] | Compound metabolized

Assay: The drug is tested on Eubacterium ventriosum strain: ATCC27560 for biotransformation. The drug concentrations were measured before and after a 12-h incubation by liquid-chromatography-coupled mass spectrometry (LC–MS)
Assay type: ADME
Design: dose 2 uM, timepoint 0 vs 12 hours
Details: 2 µM

SMILES | Bacterial Biotransformation
CC[C@@H](CO)NC(=O)[C@@H]1C=C2c3cccc4c3c(cn4C)C[C@H]2N(C)C1.O=C(O)/C=C\C(=O)O [METHYSERGIDE MALEATE] | Compound metabolized
COc1ccc2[nH]c([S+]([O-])Cc3ncc(C)c(OC)c3C)nc2n1 (stereo not given) [TENATOPRAZOLE] | Compound metabolized

Assay: The drug is tested on Subdoligranulum variabile strain: DSM15176 for biotransformation. The drug concentrations were measured before and after a 12-h incubation by liquid-chromatography-coupled mass spectrometry (LC–MS)
Details: 2 µM

SMILES | Bacterial Biotransformation
CC[C@@H](CO)NC(=O)[C@@H]1C=C2c3cccc4c3c(cn4C)C[C@H]2N(C)C1.O=C(O)/C=C\C(=O)O [METHYSERGIDE MALEATE] | Compound metabolized
COc1ccc2[nH]c([S+]([O-])Cc3ncc(C)c(OC)c3C)nc2n1 (stereo not given) [TENATOPRAZOLE] | Compound metabolized

Assay: The drug is tested on Escherichia coli strain: BW25113 for biotransformation. The drug concentrations were measured before and after a 12-h incubation by liquid-chromatography-coupled mass spectrometry (LC–MS)
Details: 2 µM

SMILES | Bacterial Biotransformation
CC[C@@H](CO)NC(=O)[C@@H]1C=C2c3cccc4c3c(cn4C)C[C@H]2N(C)C1.O=C(O)/C=C\C(=O)O [METHYSERGIDE MALEATE] | Compound metabolized
COc1ccc2[nH]c([S+]([O-])Cc3ncc(C)c(OC)c3C)nc2n1 (stereo not given) [TENATOPRAZOLE] | Compound metabolized

Details: bacteroides eggerthii, 12 h, 2 µM
Description: The drug is tested on Bacteroides eggerthii strain: DSM20697 for biotransformation. The drug concentrations were measured before and after a 12-h incubation by liquid-chromatography-coupled mass spectrometry (LC–MS)

SMILES | Bacterial Biotransformation
CC[C@@H](CO)NC(=O)[C@@H]1C=C2c3cccc4c3c(cn4C)C[C@H]2N(C)C1.O=C(O)/C=C\C(=O)O [METHYSERGIDE MALEATE] | Compound metabolized
COc1ccc2[nH]c([S+]([O-])Cc3ncc(C)c(OC)c3C)nc2n1 (stereo not given) [TENATOPRAZOLE] | Compound metabolized

Details: bacteroides thetaiotaomicron, 12 h, 2 µM
Description: The drug is tested on Bacteroides thetaiotaomicron strain: VPI-5482 for biotransformation. The drug concentrations were measured before and after a 12-h incubation by liquid-chromatography-coupled mass spectrometry (LC–MS)

SMILES | Bacterial Biotransformation
CC[C@@H](CO)NC(=O)[C@@H]1C=C2c3cccc4c3c(cn4C)C[C@H]2N(C)C1.O=C(O)/C=C\C(=O)O [METHYSERGIDE MALEATE] | Compound metabolized
COc1ccc2[nH]c([S+]([O-])Cc3ncc(C)c(OC)c3C)nc2n1 (stereo not given) [TENATOPRAZOLE] | Compound metabolized

Details: bacteroides thetaiotaomicron, 12 h, 2 µM
Remark: another data set of the same source
Description: The drug is tested on Bacteroides thetaiotaomicron strain: 7330 for biotransformation. The drug concentrations were measured before and after a 12-h incubation by liquid-chromatography-coupled mass spectrometry (LC–MS)

SMILES | Bacterial Biotransformation
CC[C@@H](CO)NC(=O)[C@@H]1C=C2c3cccc4c3c(cn4C)C[C@H]2N(C)C1.O=C(O)/C=C\C(=O)O [METHYSERGIDE MALEATE] | Compound metabolized
COc1ccc2[nH]c([S+]([O-])Cc3ncc(C)c(OC)c3C)nc2n1 (stereo not given) [TENATOPRAZOLE] | Compound metabolized

Details: segatella copri, 12 h, 2 µM
Description: The drug is tested on Prevotella copri strain: DSM18205 for biotransformation. The drug concentrations were measured before and after a 12-h incubation by liquid-chromatography-coupled mass spectrometry (LC–MS)

SMILES | Bacterial Biotransformation
CC[C@@H](CO)NC(=O)[C@@H]1C=C2c3cccc4c3c(cn4C)C[C@H]2N(C)C1.O=C(O)/C=C\C(=O)O [METHYSERGIDE MALEATE] | Compound metabolized
COc1ccc2[nH]c([S+]([O-])Cc3ncc(C)c(OC)c3C)nc2n1 (stereo not given) [TENATOPRAZOLE] | Compound metabolized

Details: roseburia intestinalis, 12 h, 2 µM
Description: The drug is tested on Roseburia intestinalis strain: L1-82 for biotransformation. The drug concentrations were measured before and after a 12-h incubation by liquid-chromatography-coupled mass spectrometry (LC–MS)

SMILES | Bacterial Biotransformation
CC[C@@H](CO)NC(=O)[C@@H]1C=C2c3cccc4c3c(cn4C)C[C@H]2N(C)C1.O=C(O)/C=C\C(=O)O [METHYSERGIDE MALEATE] | Compound metabolized
COc1ccc2[nH]c([S+]([O-])Cc3ncc(C)c(OC)c3C)nc2n1 (stereo not given) [TENATOPRAZOLE] | Compound metabolized

Details: victivallis vadensis, 12 h, 2 µM
Description: The drug is tested on Victivallis vadensis strain: ATCC BAA-548 for biotransformation. The drug concentrations were measured before and after a 12-h incubation by liquid-chromatography-coupled mass spectrometry (LC–MS)

SMILES | Bacterial Biotransformation
CC[C@@H](CO)NC(=O)[C@@H]1C=C2c3cccc4c3c(cn4C)C[C@H]2N(C)C1.O=C(O)/C=C\C(=O)O [METHYSERGIDE MALEATE] | Compound metabolized
COc1ccc2[nH]c([S+]([O-])Cc3ncc(C)c(OC)c3C)nc2n1 (stereo not given) [TENATOPRAZOLE] | Compound metabolized

Details: akkermansia muciniphila, 12 h, 2 µM
Description: The drug is tested on Akkermansia muciniphila strain: ATCC BAA-835 for biotransformation. The drug concentrations were measured before and after a 12-h incubation by liquid-chromatography-coupled mass spectrometry (LC–MS)

SMILES | Bacterial Biotransformation
CC[C@@H](CO)NC(=O)[C@@H]1C=C2c3cccc4c3c(cn4C)C[C@H]2N(C)C1.O=C(O)/C=C\C(=O)O [METHYSERGIDE MALEATE] | Compound metabolized
COc1ccc2[nH]c([S+]([O-])Cc3ncc(C)c(OC)c3C)nc2n1 (stereo not given) [TENATOPRAZOLE] | Compound metabolized
